In publication PMC9376946, “Peptide-RNA Coacervates as a Cradle for the Evolution of Folded Domains” (Journal of the American Chemical Society, 2022):

Experiments:
polyU [1] = assay: Coacervate (droplet) formation with polyU, optical microscopy; format: physicochemical
Description: Optical microscopy images of phase-separated samples were taken at the de Picciotto Cancer Cell Observatory Life Sciences Core Facilities (Weizmann Institute of Science) using a 100× objective (oil immersion) on a Leica DMI8 microscope with differential interface contrast. We used 1–2 μL of the sample to make a small drop in an imaging chamber produced by attaching a coverslip to a clean glass slide using a thin strip of double-sided tape (AJ Sign World). Images were processed using the software package Fiji (NIH).
Lyophilized, spin-labeled peptides were dissolved in Milli-Q water and centrifuged at 4000 rpm for 10 min to remove insoluble aggregates. The soluble fractions were used to prepare stock solutions of 250–500 μM peptide. Labeled peptide concentrations were determined by comparing the area under the curve of the EPR signal against that of standard solutions of 10–285 μM TEMPO. For the EPR measurements in D2O, 200 μL of the stock solution was lyophilized and re-dissolved in D2O. The concentration of the unlabeled peptide stock solutions was determined using the bicinchoninic acid assay (Thermo Fisher Scientific) and ranged from 0.8 to 1.2 mM peptide. A stock solution of 500 mM MES, pH 5.6 was used to adjust all samples to a final concentration of 50 mM MES, pH 5.6. Aliquots of 10 mg/mL polyuridylic acid (polyU; Sigma Aldrich) were prepared in Milli-Q water and diluted as necessary. For CW-EPR measurements, a quartz capillary of 0.6 mm i.d. and 0.84 mm o.d. was filled with 7–8 μL of the sample and sealed with Critoseal (Fisherbrand, Fisher Scientific) at one end. A single capillary was placed in an X-band EPR tube of 2 mm i.d. and 2.4 mm o.d. for measurements, except for spin concentration below 50 μM, where two capillaries were used.
Each sample was freshly prepared and the time to collect […] CW-EPR data was 30–40 min.

polyU [2] = details: ref [17]; cited from earlier work
Text: The basis for the work presented here is the construct Precursor-Arg (PA).[17] PA consists of a single helix-hairpin-helix (HhH) motif and is constructed from an alphabet of only 10 amino acid types. The sequence of PA (Table 1) is biased specifically for those amino acids that were thought to be present on the early earth[35] and is the result of an ancestor sequence reconstruction of the (HhH)2-Fold protein family followed by an experimental deconstruction.[17] PA has two positively charged patches—located at the N-terminus of the first α-helix (residues 1–4, RIRR) and on the second α-helix ... || Using the ColabFold implementation of AlphaFold2,[33] a model of a putative PA dimer was predicted (Figure 1A). […] The dimerization potential of PA was further confirmed by MD simulations (Figure S6). […] This option relies on the dimer having conformations where positive and negative charges are separated, allowing for efficient bidentate binding to the polyU.

[3] = earlier study, trifluoroethanol titration followed by CD; ref [17]; cited from earlier work

RVRRSEIPLGIELEAGTLRLARRPEIRVA [SA]
coacervate formation with polyU (polyU [1]; concentrations not given): did not form coacervates with polyU
coacervate formation with polyU (polyU [1]; unlabeled peptide, 1 mg/mL polyU, aggregation also previously reported, ref [17]): did not form coacervates but rather aggregates
coacervate formation or precipitation with polyU (earlier study) (polyU [2]): precipitates with polyU rather than forms coacervates
α-helical propensity [3]: lower α-helical propensity than PA
